Assay results: publication PMC7497630, “Coibamide A Targets Sec61 to Prevent Biogenesis of Secretory and Membrane Proteins” (ACS Chemical Biology, 2020)

Assays:
HCC-2998 = details: published NCI60 panel data, ref 1 (Coibamide A), 2 (Apratoxin A), 3 (Ipomoeassin F); cited from earlier work
HT29 = details: published NCI60 panel data, ref 1 (Coibamide A), 2 (Apratoxin A), 3 (Ipomoeassin F); cited from earlier work
SK-MEL-5 = details: published NCI60 panel data, ref 1 (Coibamide A), 2 (Apratoxin A), 3 (Ipomoeassin F); cited from earlier work
MCF7 = details: published NCI60 panel data, ref 1 (Coibamide A), 2 (Apratoxin A), 3 (Ipomoeassin F); cited from earlier work
T-47D = details: published NCI60 panel data, ref 1 (Coibamide A), 2 (Apratoxin A), 3 (Ipomoeassin F); cited from earlier work
NCI-H460 = details: published NCI60 panel data, ref 1 (Coibamide A), 2 (Apratoxin A), 3 (Ipomoeassin F); cited from earlier work
SF-539 = details: published NCI60 panel data, ref 1 (Coibamide A), 2 (Apratoxin A), 3 (Ipomoeassin F); cited from earlier work
SF-295 = details: published NCI60 panel data, ref 1 (Coibamide A), 2 (Apratoxin A), 3 (Ipomoeassin F); cited from earlier work
SF-268 = details: published NCI60 panel data, ref 1 (Coibamide A), 2 (Apratoxin A), 3 (Ipomoeassin F); cited from earlier work
HL-60 (TB) = details: published NCI60 panel data; cited from earlier work
COLO 205 = details: published NCI60 panel data, ref 1 (Coibamide A), 2 (Apratoxin A), 3 (Ipomoeassin F); cited from earlier work
HOP-92 = details: published NCI60 panel data, ref 1 (Coibamide A), 2 (Apratoxin A), 3 (Ipomoeassin F); cited from earlier work
SK-OV-3 = details: published NCI60 panel data, ref 1 (Coibamide A), 2 (Apratoxin A), 3 (Ipomoeassin F); cited from earlier work
LOX IMVI = details: published NCI60 panel data, ref 1 (Coibamide A), 2 (Apratoxin A), 3 (Ipomoeassin F); cited from earlier work
M14 = details: published NCI60 panel data, ref 1 (Coibamide A), 2 (Apratoxin A), 3 (Ipomoeassin F); cited from earlier work
HCT-116 = details: published NCI60 panel data, ref 1 (Coibamide A), 2 (Apratoxin A), 3 (Ipomoeassin F); cited from earlier work
SR = details: published NCI60 panel data, ref 1 (Coibamide A), 2 (Apratoxin A), 3 (Ipomoeassin F); cited from earlier work
MDA-MB-231/ATCC = details: published NCI60 panel data, ref 1 (Coibamide A), 2 (Apratoxin A), 3 (Ipomoeassin F); cited from earlier work
HS 578T = details: published NCI60 panel data, ref 1 (Coibamide A), 2 (Apratoxin A), 3 (Ipomoeassin F); cited from earlier work
RXF 393 = details: published NCI60 panel data, ref 1 (Coibamide A), 2 (Apratoxin A), 3 (Ipomoeassin F); cited from earlier work
RPMI-8226 = details: published NCI60 panel data, ref 1 (Coibamide A), 2 (Apratoxin A), 3 (Ipomoeassin F); cited from earlier work
IGROV1 = details: published NCI60 panel data, ref 1 (Coibamide A), 2 (Apratoxin A), 3 (Ipomoeassin F); cited from earlier work
U251 = details: published NCI60 panel data, ref 1 (Coibamide A), 2 (Apratoxin A), 3 (Ipomoeassin F); cited from earlier work
K-562 = details: published NCI60 panel data, ref 1 (Coibamide A), 2 (Apratoxin A), 3 (Ipomoeassin F); cited from earlier work
SNB-75 = details: published NCI60 panel data, ref 1 (Coibamide A), 2 (Apratoxin A), 3 (Ipomoeassin F); cited from earlier work
SW-620 = details: published NCI60 panel data, ref 1 (Coibamide A), 2 (Apratoxin A), 3 (Ipomoeassin F); cited from earlier work
CCRF-CEM = details: published NCI60 panel data, ref 1 (Coibamide A), 2 (Apratoxin A), 3 (Ipomoeassin F); cited from earlier work
MDA-MB-435 = details: published NCI60 panel data, ref 1 (Coibamide A), 2 (Apratoxin A), 3 (Ipomoeassin F); cited from earlier work
SNB-19 = details: published NCI60 panel data, ref 1 (Coibamide A), 2 (Apratoxin A), 3 (Ipomoeassin F); cited from earlier work
HOP-62 = details: published NCI60 panel data, ref 1 (Coibamide A), 2 (Apratoxin A), 3 (Ipomoeassin F); cited from earlier work
PC-3 = details: published NCI60 panel data, ref 1 (Coibamide A), 2 (Apratoxin A), 3 (Ipomoeassin F); cited from earlier work
SK-MEL-28 = details: published NCI60 panel data, ref 1 (Coibamide A), 2 (Apratoxin A), 3 (Ipomoeassin F); cited from earlier work
NCI-H226 = details: published NCI60 panel data, ref 1 (Coibamide A), 2 (Apratoxin A), 3 (Ipomoeassin F); cited from earlier work
UO-31 = details: published NCI60 panel data, ref 1 (Coibamide A), 2 (Apratoxin A), 3 (Ipomoeassin F); cited from earlier work
OVCAR8 = details: published NCI60 panel data, ref 1 (Coibamide A), 2 (Apratoxin A), 3 (Ipomoeassin F); cited from earlier work
786-0 = details: published NCI60 panel data, ref 1 (Coibamide A), 2 (Apratoxin A), 3 (Ipomoeassin F); cited from earlier work
A549/ATCC = details: published NCI60 panel data, ref 1 (Coibamide A), 2 (Apratoxin A), 3 (Ipomoeassin F); cited from earlier work
A498 = details: published NCI60 panel data, ref 1 (Coibamide A), 2 (Apratoxin A), 3 (Ipomoeassin F); cited from earlier work
NCI-H522 = details: published NCI60 panel data, ref 1 (Coibamide A), 2 (Apratoxin A), 3 (Ipomoeassin F); cited from earlier work
DU-145 = details: published NCI60 panel data, ref 1 (Coibamide A), 2 (Apratoxin A), 3 (Ipomoeassin F); cited from earlier work
UACC-257 = details: published NCI60 panel data, ref 1 (Coibamide A), 2 (Apratoxin A), 3 (Ipomoeassin F); cited from earlier work
UACC-62 = details: published NCI60 panel data, ref 1 (Coibamide A), 2 (Apratoxin A), 3 (Ipomoeassin F); cited from earlier work
MALME-3M = details: published NCI60 panel data, ref 1 (Coibamide A), 2 (Apratoxin A), 3 (Ipomoeassin F); cited from earlier work
KM12 = details: published NCI60 panel data, ref 1 (Coibamide A), 2 (Apratoxin A), 3 (Ipomoeassin F); cited from earlier work
NCI-H322M = details: published NCI60 panel data, ref 1 (Coibamide A), 2 (Apratoxin A), 3 (Ipomoeassin F); cited from earlier work
SN12C = details: published NCI60 panel data, ref 1 (Coibamide A), 2 (Apratoxin A), 3 (Ipomoeassin F); cited from earlier work
OVCAR5 = details: published NCI60 panel data, ref 1 (Coibamide A), 2 (Apratoxin A), 3 (Ipomoeassin F); cited from earlier work
EKVX = details: published NCI60 panel data, ref 1 (Coibamide A), 2 (Apratoxin A), 3 (Ipomoeassin F); cited from earlier work
OVCAR3 = details: published NCI60 panel data, ref 1 (Coibamide A), 2 (Apratoxin A), 3 (Ipomoeassin F); cited from earlier work
HCT-15 = details: published NCI60 panel data, ref 1 (Coibamide A), 2 (Apratoxin A), 3 (Ipomoeassin F); cited from earlier work
MOLT-4 = details: published NCI60 panel data, ref 1 (Coibamide A), 2 (Apratoxin A), 3 (Ipomoeassin F); cited from earlier work
SK-MEL-2 = details: published NCI60 panel data, ref 1 (Coibamide A), 2 (Apratoxin A), 3 (Ipomoeassin F); cited from earlier work
NCI/ADR-RES = details: published NCI60 panel data, ref 1 (Coibamide A), 2 (Apratoxin A), 3 (Ipomoeassin F); cited from earlier work
NCI-H23 = details: published NCI60 panel data, ref 1 (Coibamide A), 2 (Apratoxin A), 3 (Ipomoeassin F); cited from earlier work
TK-10 = details: published NCI60 panel data, ref 1 (Coibamide A), 2 (Apratoxin A), 3 (Ipomoeassin F); cited from earlier work
BT-549 = details: published NCI60 panel data, ref 1 (Coibamide A), 2 (Apratoxin A), 3 (Ipomoeassin F); cited from earlier work
OVCAR4 = details: published NCI60 panel data, ref 1 (Coibamide A), 2 (Apratoxin A), 3 (Ipomoeassin F); cited from earlier work
Sec61α = experiment: Photoaffinity labeling competition in sheep rough microsomes; format: binding; details: SRM with 100 nM Sec61, 30 min with competitor, then 100 nM photo-CbA, UV 10 min, TAMRA in-gel fluorescence
Method: Figure 2 Photo-cross-linking of photo-CbA to Sec61α and CbA stabilization of Sec61 in cells. Photocotransin (CT7) or photocoibamide (pCbA) cross-linking to cells or sheep rough microsomes (SRM). Samples were photolyzed and the covalent adduct detected by click-chemistry to TAMRA-azide reporter and in-gel fluorescence scanning and Western blotting. (A) A431 cell lines were first incubated with CbA or carrier, followed by incubation with photo-CbA, photolysis, and click chemistry. Following SDS PAGE, lysates were queried for in gel fluorescence and subsequently transferred for anti-Sec61α and anti-FLAG Western Blot. Arrows indicate Sec61 (with or without a 10 kDa insert), star indicates nonspecific WB signal, triangle indicates free TAMRA dye within the gel. (B) As in A but in SRMs. […] Heat-treated cell suspensions were snap frozen, lysates cleared by centrifugation, and the soluble fraction analyzed by SDS-PAGE and Western blotting. […] (F) Quantification of immunoblot data shown in E. Sec61α band intensity was normalized to tubulin, and data points were fitted using nonlinear regression analysis.
The photoaffinity labeling and click chemistry with microsomes were done as previously described.[17] […] The labeled proteins were analyzed by SDS-PAGE and in-gel fluorescence. […]

C/C=C(\C)C(=O)O[C@@H]1[C@@H](O)[C@@H]2O[C@H]3[C@H](O[C@@H](CCCCC)CCCCCCC(=O)CCC(=O)OC[C@@H](O2)[C@H]1OC(=O)/C=C/c1ccccc1)O[C@H](C)[C@H](OC(C)=O)[C@@H]3O [IpoF, ipomoeassin F]
GI50 (HCC-2998): 1180 nM | GI50 (HT29): 10 nM | GI50 (SK-MEL-5): 10 nM | GI50 (MCF7): 10 nM | GI50 (T-47D): 10 nM | GI50 (NCI-H460): 10 nM | GI50 (SF-539): 10 nM | GI50 (SF-295): 10 nM | GI50 (SF-268): 115 nM | GI50 (HL-60 (TB)): 49 nM | GI50 (COLO 205): 10 nM | GI50 (HOP-92): 10 nM | GI50 (SK-OV-3): 38.4 nM | GI50 (LOX IMVI): 10 nM | GI50 (M14): 10 nM | GI50 (HCT-116): 10 nM | GI50 (SR): 14.4 nM | GI50 (MDA-MB-231/ATCC): 10 nM | GI50 (HS 578T): 10 nM | GI50 (RXF 393): 10 nM | GI50 (RPMI-8226): 10 nM | GI50 (IGROV1): 26.7 nM | GI50 (U251): 10 nM | GI50 (K-562): 10 nM | GI50 (SNB-75): 10 nM | GI50 (SW-620): 10 nM | GI50 (CCRF-CEM): 741 nM | GI50 (MDA-MB-435): 10 nM | GI50 (SNB-19): 129 nM | GI50 (HOP-62): 10 nM | GI50 (PC-3): 10 nM | GI50 (SK-MEL-28): 17.5 nM | GI50 (NCI-H226): 276 nM | GI50 (UO-31): 10 nM | GI50 (OVCAR8): 117 nM | GI50 (786-0): 30.1 nM | GI50 (A549/ATCC): 10 nM | GI50 (A498): 315 nM | GI50 (NCI-H522): 27.9 nM | GI50 (DU-145): 31.9 nM | GI50 (UACC-257): 11.9 nM | GI50 (UACC-62): 15.3 nM | GI50 (MALME-3M): 57.8 nM | GI50 (KM12): 10 nM | GI50 (NCI-H322M): 391 nM | GI50 (SN12C): 10 nM | GI50 (OVCAR5): 1230 nM | GI50 (EKVX): 10 nM | GI50 (OVCAR3): 28.3 nM | GI50 (HCT-15): 29.8 nM | GI50 (MOLT-4): 3420 nM | GI50 (SK-MEL-2): 445 nM | GI50 (NCI/ADR-RES): 297 nM | GI50 (NCI-H23): 213 nM | GI50 (TK-10): 15.2 nM | GI50 (BT-549): 17.9 nM | GI50 (OVCAR4): 1580 nM

CC(=C\C=C\C(C)=C\[C@H](O)[C@@H](O)C[C@H](C)O)/C=C(C)/C=C/C(=O)O[C@H]1CCCC(=O)O[C@@H]([C@@H](C)C/C(C)=C/[C@@H](C)[C@H](O)C[C@@H](C)O)C/C=C(\C)C[C@@H]1C [mycolactone]
competition of photo-CbA cross-linking to Sec61α (Sec61α): prevented photo-CbA cross-linking in a concentration-dependent manner
